# Laboratory results published in US11771649B1, “Pharmaceutical lotion or salve utilizing mixed metal hydroxide antimicrobial charged particles” (Magalum LLC, priority 2021, dated 2023).
# Tested on: methicillin resistant Staphylococcus aureus
# Assay: Example XXI: wound infected with methicillin resistant Staphylococcus aureus
# Format: in vivo, horse
# Text: A 4 year old quarter horse mare had received a 4 inch cut on the chest from an encounter with a corral fence and had developed an infection. […] At that time, a specimen was taken from the wound and sent to a diagnostic lab for identification. Treatment of the wound was then started with silver sulfa diazole. When the results were returned from the diagnostic lab, the pathogen was identified as methicillin resistant Staphylococcus aureus. At that time, salve as described in Example 4 was applied to the wound, and then reapplied twice daily.
Compound,"state of wound (prior treatment, after two days)","state of wound (10,000 units per pound body weight injection, after 72 hours)"
"NC(=O)N/N=C/c1ccc([N+](=O)[O-])o1 [nitrofurazone ointment, nitrofurazone]",no positive result,
penicillin,,no improvement was again noted
